Laboratory results taken from US20260242419A1, “A CYCLIC PEPTIDE FOR TRAPPING INTERLEUKIN-1 BETA” (Merck Sharp & Dohme LLC, priority 2023, published 2026).
Where two headings read alike, the source gives them in different places. Starred links: 1 amine or outer side, 2 acyl side, 3 side chain; linkers in the order of their positions; H or OH if unused. Non-standard residues stand in square brackets, D forms with d. Residues, ends and D or L forms follow the SMILES beside them. dPro(4R-(4-pyridylmethyl)) = O=C(O)[C@H]1C[C@@H](Cc2ccncc2)CN1; Trp(βS-Me,4-F) = C[C@@H](c1c[nH]c2cccc(F)c12)[C@H](N)C(=O)O; Bip(4'-COOH) = N[C@@H](Cc1ccc(-c2ccc(C(=O)O)cc2)cc1)C(=O)O; Ala(1-bicyclo(1.1.1)pentyl) = N[C@@H](CC12CC(C1)C2)C(=O)O; dPro(4R-Bzl(4-F)) = O=C(O)[C@H]1C[C@@H](Cc2ccc(F)cc2)CN1; dPro(3S-(4-F-Bn)) = O=C(O)[C@@H]1NCC[C@@H]1Cc1ccc(F)cc1; 1Nal(3S-Me) = C[C@@H](c1cccc2ccccc12)[C@H](N)C(=O)O; X4 = O=C([C@H]1[C@@H](Cc2ccncc2)CCN1[*:1])[*:2]; Ala(pyrimidin-5-yl) = N[C@@H](Cc1cncnc1)C(=O)O; Phe(4-COOH) = N[C@@H](Cc1ccc(C(=O)O)cc1)C(=O)O; Bip = N[C@@H](Cc1ccc(-c2ccccc2)cc1)C(=O)O; Pro(cis-4-F) = O=C(O)[C@@H]1C[C@H](F)CN1; Ala(4-THP) = N[C@@H](CC1CCOCC1)C(=O)O; AEF = NCCOc1ccc(C[C@H](N)C(=O)O)cc1; cisHyp = O=C(O)[C@@H]1C[C@H](O)CN1; d(αMeD) = C[C@@](N)(CC(=O)O)C(=O)O; 4Pal = N[C@@H](Cc1ccncc1)C(=O)O; aThr = C[C@H](O)[C@H](N)C(=O)O; d(αMeS) = C[C@@](N)(CO)C(=O)O; NMeDab = CN[C@@H](CCN)C(=O)O; Dab = NCC[C@H](N)C(=O)O; Aib = CC(C)(N)C(=O)O

Biological target: T1, IL-1β (Homo sapiens, UniProt P01584)
T1 construct: purchased BioLegend 579404
Assay: IL-6 assay in MRC5 cells: inhibition of IL-1β induced IL-6 secretion (AlphaLISA)
Assay type: cell-based
Conditions: inhibition of IL-1β induced IL-6 secretion in MRC5 cells, read-out: MRC5 IC50
Procedure, shortened: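 Compound was pre-incubated 1 h at ambient temperature with recombinant human IL-1β at 2λ EC80 before adding human lung fibroblast MRC5 cells (3000/well) in EMEM with 0.025% BSA. After overnight culture at 37 °C, 5% CO2, secreted IL-6 in conditioned medium was measured by AlphaLISA; IC50 from 4-parameter logistic fits.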

[1] = compound pre-incubated 1 hour with recombinant human IL-1β

T1 sequence (P01584 117-269): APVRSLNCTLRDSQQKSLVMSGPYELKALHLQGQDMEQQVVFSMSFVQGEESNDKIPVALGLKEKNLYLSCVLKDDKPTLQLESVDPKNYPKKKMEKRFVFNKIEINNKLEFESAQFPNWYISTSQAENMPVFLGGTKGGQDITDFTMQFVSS

SMILES: C[C@@H](c1c[nH]c2cccc(F)c12)[C@@H]1NC(=O)[C@@H]2C[C@H](F)CN2C(=O)CNC(=O)[C@H](Cc2ccc(C(=O)O)cc2)NC(=O)[C@H](Cc2ccncc2)NC(=O)[C@H](Cc2ccc(-c3ccc(C(=O)O)cc3)cc2)NC(=O)[C@H]2[C@@H](Cc3ccncc3)CCN2C(=O)CNC(=O)[C@H](CCN)N(C)C(=O)[C@H](CCC(N)=O)NC(=O)[C@H](Cc2cncnc2)NC(=O)C(C)(C)NC(=O)[C@H](Cc2c[nH]c3ccccc23)NC(=O)[C@H](CO)NC(=O)C(C)(C)NC1=O [Example 241] (cyclo([Bip(4'-COOH)][4Pal][Phe(4-COOH)]G[Pro(cis-4-F)][Trp(βS-Me,4-F)][Aib]SW[Aib][Ala(pyrimidin-5-yl)]Q[NMeDab]G[X4]))
- IC50 [1]: 0.018 nM

SMILES: C[C@@H](c1c[nH]c2cccc(F)c12)[C@@H]1NC(=O)[C@@H]2C[C@H](F)CN2C(=O)CNC(=O)[C@H](Cc2ccc(C(=O)O)cc2)NC(=O)[C@H](Cc2ccncc2)NC(=O)[C@H](Cc2ccc(-c3ccc(C(=O)O)cc3)cc2)NC(=O)[C@H]2C[C@@H](Cc3ccc(F)cc3)CN2C(=O)CNC(=O)[C@H](CCCNC(=N)N)NC(=O)[C@H](CCC(N)=O)NC(=O)[C@H](Cc2ccccc2)NC(=O)C(C)(C)NC(=O)[C@H](Cc2c[nH]c3ccccc23)NC(=O)[C@H](CCC(=O)O)NC(=O)C(C)(C)NC1=O [Example 35] (cyclo([Bip(4'-COOH)][4Pal][Phe(4-COOH)]G[Pro(cis-4-F)][Trp(βS-Me,4-F)][Aib]EW[Aib]FQRG[dPro(4R-Bzl(4-F))]))
- IC50: 0.049 nM

SMILES: C[C@@H](c1c[nH]c2cccc(F)c12)[C@@H]1NC(=O)[C@@H]2C[C@H](O)CN2C(=O)CNC(=O)[C@H](Cc2ccc(C(=O)O)cc2)NC(=O)[C@H](Cc2ccncc2)NC(=O)[C@H](Cc2ccc(-c3ccc(C(=O)O)cc3)cc2)NC(=O)[C@H]2C[C@@H](Cc3ccncc3)CN2C(=O)CNC(=O)[C@H](CCN)NC(=O)[C@H](CCC(N)=O)NC(=O)[C@H](CC2CCOCC2)NC(=O)C(C)(C)NC(=O)[C@H](Cc2c[nH]c3ccccc23)NC(=O)[C@H](CO)NC(=O)C(C)(C)NC1=O [Example 212] (cyclo([Bip(4'-COOH)][4Pal][Phe(4-COOH)]G[cisHyp][Trp(βS-Me,4-F)][Aib]SW[Aib][Ala(4-THP)]Q[Dab]G[dPro(4R-(4-pyridylmethyl))]))
- IC50: 0.029 nM

SMILES: C[C@H](O)[C@@H]1NC(=O)[C@@](C)(CC(=O)O)NC(=O)[C@H](Cc2c[nH]c3ccccc23)NC(=O)[C@H](CO)NC(=O)C(C)(C)NC(=O)[C@H]([C@@H](C)c2c[nH]c3cccc(F)c23)NC(=O)[C@@H]2C[C@H](F)CN2C(=O)CNC(=O)[C@H](Cc2ccc(C(=O)O)cc2)NC(=O)[C@H](Cc2ccncc2)NC(=O)[C@H](Cc2ccc(-c3ccccc3)cc2)NC(=O)[C@H]2C[C@@H](Cc3ccncc3)CN2C(=O)CNC(=O)[C@H](CCN)NC(=O)[C@H](CCC(N)=O)NC1=O [Example 293] (cyclo([Bip][4Pal][Phe(4-COOH)]G[Pro(cis-4-F)][Trp(βS-Me,4-F)][Aib]SW[d(αMeD)][aThr]Q[Dab]G[dPro(4R-(4-pyridylmethyl))]))
- IC50 [1]: 0.01 nM

SMILES: C[C@H](O)[C@@H]1NC(=O)[C@@](C)(CC(=O)O)NC(=O)[C@H](Cc2c[nH]c3ccccc23)NC(=O)[C@H](CO)NC(=O)C(C)(C)NC(=O)[C@H]([C@@H](C)c2cccc3ccccc23)NC(=O)[C@@H]2C[C@H](F)CN2C(=O)CNC(=O)[C@H](Cc2ccc(C(=O)O)cc2)NC(=O)[C@H](Cc2ccncc2)NC(=O)[C@H](Cc2ccc(-c3ccccc3)cc2)NC(=O)[C@H]2C[C@@H](Cc3ccncc3)CN2C(=O)CNC(=O)[C@H](CCN)NC(=O)[C@H](CCC(N)=O)NC1=O [Example 288] (cyclo([Bip][4Pal][Phe(4-COOH)]G[Pro(cis-4-F)][1Nal(3S-Me)][Aib]SW[d(αMeD)][aThr]Q[Dab]G[dPro(4R-(4-pyridylmethyl))]))
- IC50 [1]: 0.019 nM

SMILES: C[C@H](O)[C@@H]1NC(=O)[C@@](C)(CC(=O)O)NC(=O)[C@H](Cc2c[nH]c3ccccc23)NC(=O)[C@H](CO)NC(=O)C(C)(C)NC(=O)[C@H]([C@@H](C)c2c[nH]c3cccc(F)c23)NC(=O)[C@@H]2C[C@H](F)CN2C(=O)CNC(=O)[C@H](Cc2ccc(C(=O)O)cc2)NC(=O)[C@H](Cc2ccncc2)NC(=O)[C@H](Cc2ccc(-c3ccc(C(=O)O)cc3)cc2)NC(=O)[C@H]2C[C@@H](Cc3ccncc3)CN2C(=O)CNC(=O)[C@H](CCN)NC(=O)[C@H](CCC(N)=O)NC1=O [Example 359] (cyclo([Bip(4'-COOH)][4Pal][Phe(4-COOH)]G[Pro(cis-4-F)][Trp(βS-Me,4-F)][Aib]SW[d(αMeD)][aThr]Q[Dab]G[dPro(4R-(4-pyridylmethyl))]))
- IC50: 0.011 nM

SMILES: CC(=O)NCCOc1ccc(C[C@@H]2NC(=O)[C@H]3[C@@H](Cc4ccc(F)cc4)CCN3C(=O)CNC(=O)[C@H](CCN)NC(=O)[C@H](CCC(N)=O)NC(=O)[C@H](CC3CCOCC3)NC(=O)[C@@](C)(CO)NC(=O)[C@H](Cc3c[nH]c4ccccc34)NC(=O)[C@H](CO)NC(=O)C(C)(C)NC(=O)[C@H]([C@@H](C)c3c[nH]c4cccc(F)c34)NC(=O)[C@@H]3C[C@H](F)CN3C(=O)CNC(=O)[C@H](Cc3ccc(C(=O)O)cc3)NC(=O)[C@H](CC34CC(C3)C4)NC2=O)cc1 [Example 371] (cyclo([AEF](Ac)[Ala(1-bicyclo(1.1.1)pentyl)][Phe(4-COOH)]G[Pro(cis-4-F)][Trp(βS-Me,4-F)][Aib]SW[d(αMeS)][Ala(4-THP)]Q[Dab]G[dPro(3S-(4-F-Bn))]))
- IC50: 0.014 nM
